How the values were obtained:
[1] = system: PaTu 8988t; test: Antiproliferative activity against human PaTu 8988t cells assessed as inhibition of cell proliferation at 1 uM incubated for 72 hrs by SRB assay relative to control; format: functional
[2] = Antiproliferative activity against human L02 cells assessed as inhibition of cell proliferation at 1 uM incubated for 72 hrs by SRB assay relative to control; format: toxicity, cell-based
[3] = system: Panc02; test: Antiproliferative activity against mouse Panc02 cells assessed as inhibition of cell proliferation at 1 uM incubated for 72 hrs by SRB assay relative to control; format: functional
[4] = system: CFPAC-1; test: Antiproliferative activity against human CFPAC-1 cells assessed as inhibition of cell proliferation at 1 uM incubated for 72 hrs by SRB assay relative to control; format: functional
[5] = system: MIA PaCa-2; test: Antiproliferative activity against human MIA PaCa-2 cells assessed as inhibition of cell proliferation at 1 uM incubated for 72 hrs by SRB assay relative to control; format: functional
[6] = system: CFPAC-1; test: Antiproliferative activity against human CFPAC-1 cells assessed as inhibition of cell proliferation incubated for 72 hrs by SRB assay; format: functional, cell-based; conditions: CFPAC-1, 72 h
[7] = system: MIA PaCa-2; test: Antiproliferative activity against human MIA PaCa-2 cells assessed as inhibition of cell proliferation incubated for 72 hrs by SRB assay; format: functional, cell-based; conditions: MIA PaCa-2, 72 h
[8] = Antiproliferative activity against human L02 cells assessed as inhibition of cell proliferation incubated for 72 hrs by SRB assay; format: toxicity, cell-based
[9] = system: Panc02; test: Antiproliferative activity against mouse Panc02 cells assessed as inhibition of cell proliferation incubated for 72 hrs by SRB assay; format: functional, cell-based; conditions: Panc02, 72 h
[10] = system: PaTu 8988t; test: Antiproliferative activity against human PaTu 8988t cells assessed as inhibition of cell proliferation incubated for 72 hrs by SRB assay; format: functional, cell-based

| IC50 [7] [nM] | IC50 [9] [nM] | Compound | inhibition at 1 µM [1] [%] | inhibition at 72 h, 1 µM [2] [%] | inhibition at 1 µM [3] [%] | inhibition at 1 µM [4] [%] | inhibition at 1 µM [5] [%] | IC50 [6] [nM] | IC50 at 72 h [8] [nM] | IC50 [10] [nM] |
| --- | --- | --- | --- | --- | --- | --- | --- | --- | --- | --- |
|  |  | COc1cc2c(OCc3cn([C@H]4O[C@@H](C)[C@H](O)[C@@H](O)[C@H]4O)nn3)c3c(c(-c4ccc5c(c4)OCO5)c2cc1OC)C(=O)OC3 | -2.09 | -1.75 | 8.85 | 14.9 | 0.95 |  |  |  |
|  |  | COC(=O)CNc1c2c(c(-c3ccc4c(c3)OCO4)c3cc(OC)c(OC)cc13)C(=O)OC2 | 85.2 | 10.8 | 42 | 48.4 | 10.2 |  |  |  |
|  |  | CNc1c2c(c(-c3ccc4c(c3)OCO4)c3cc(OC)c(OC)cc13)C(=O)OC2 | 92 | 35.5 | 91.4 | 82.1 | 92.3 |  |  |  |
|  |  | COc1cc2c(OCCCc3cn([C@H]4O[C@@H](C)[C@H](O)[C@@H](O)[C@H]4O)nn3)c3c(c(-c4ccc5c(c4)OCO5)c2cc1OC)C(=O)OC3 | 8.08 | -0.18 | 16.6 | 45.9 | 46.5 |  |  |  |
| 756 | 216 | COc1cc2c(OCCOCc3cn([C@H]4O[C@@H](C)[C@H](OC(C)=O)[C@@H](OC(C)=O)[C@H]4OC(C)=O)nn3)c3c(c(-c4ccc5c(c4)OCO5)c2cc1OC)C(=O)OC3 | 86.5 | 16.4 | 53.4 | 66.7 | 72.4 | 50 | 1040 | 766 |
|  |  | COc1cc2c(NC(=O)[C@@H](N)COC(C)=O)c3c(c(-c4ccc5c(c4)OCO5)c2cc1OC)C(=O)OC3 | 2.63 | -0.71 | 8.86 | 11.6 | 3.38 |  |  |  |
| 248 | 270 | COc1cc2c(OCc3cn([C@H]4O[C@@H](C)[C@H](OC(C)=O)[C@@H](OC(C)=O)[C@H]4OC(C)=O)nn3)c3c(c(-c4ccc5c(c4)OCO5)c2cc1OC)C(=O)OC3 | 72.5 | 21.6 | 76.3 | 65.9 | 83.7 | 97 | 1230 | 163 |
|  |  | COc1cc2c(NS(N)(=O)=O)c3c(c(-c4ccc5c(c4)OCO5)c2cc1OC)C(=O)OC3 | 34.1 | 14.9 | 80.7 | 72.4 | 29 |  |  |  |
|  |  | COc1cc2c(NC(=O)[C@H](C)N)c3c(c(-c4ccc5c(c4)OCO5)c2cc1OC)C(=O)OC3 | -4.32 | 1.54 | 25.3 | 42.7 | 0.64 |  |  |  |
|  |  | COc1cc2c(OCCOCc3cn([C@H]4O[C@@H](C)[C@H](O)[C@@H](O)[C@H]4O)nn3)c3c(c(-c4ccc5c(c4)OCO5)c2cc1OC)C(=O)OC3 | 0.9 | 1.57 | 46 | 53.9 | 0.16 |  |  |  |
| 161 | 261 | COc1cc2c(NC(=O)OC(C)(C)C)c3c(c(-c4ccc5c(c4)OCO5)c2cc1OC)C(=O)OC3 | 72 | 9.56 | 78.1 | 70.5 | 52.5 | 37 | 5120 | 88 |
